Results on nine molecules are retold here after article PMC6151456, “Screening a Natural Product-Based Library against Kinetoplastid Parasites” (Molecules : A Journal of Synthetic Chemistry and Natural …, 2017).

Counter-ions that a name gives are not always drawn. Like-named read-outs stand apart in the source and are kept apart here. Bounds are passed on as bounds.

One test relates to P. falciparum (3D7). As to conditions: cited from earlier work.
The test system of the next test is HEK-293 cells. Put plainly: HEK-293 resazurin viability assay (cytotoxicity, selectivity). Type of test: cell-based, human. On the procedure:
(§1) Primary screening against T. b. brucei was undertaken at 5 µM and for T. cruzi at 10 µM final concentrations.
Cytotoxicity testing was undertaken as previously described.
In general terms: Resazurin is reduced to fluorescent resorufin, in cell work by metabolically active cells.

The next test concerns malaria infection. Further details: method as in PMID 25490858. To be noted: mouse, oral administration; cited from earlier work.
Test [1] concerns T. b. brucei bloodstream form strain 427. Put plainly: T. b. brucei resazurin viability assay. Type of test: cell-based, Trypanosoma brucei brucei. As to conditions: for IC50: Trypanosoma brucei, n = 2, 14 point dose response, top 20 µM, read-out: IC50 (mean ± SD), T. b. brucei. On the procedure: (§2) For the primary screen, compounds were prepared as a stock concentration of 5 mM in 100% DMSO and tested in duplicate points for two independent experiments (n = 2) at final assay concentrations of 20 µM and 16.7 µM for the L. donovani intracellular amastigote and promastigote viability assays, respectively. Primary screening against T. b. brucei was undertaken at 5 µM and for T. cruzi at 10 µM final concentrations. […] These compounds were then retested in a 14 point format to determine the IC50 value against the parasite, and against HEK-293, THP-1 and 3T3 cells to determine the selectivity to the parasite. […] A top dose of 20 µM was used in the T. b. brucei assay and 18.3 µM for T.cruzi assay, in 14 point dose repsonse curves as described.
The efficacy of compounds against T. b. brucei bloodstream form was evaluated using a resazurin-based assay, previously described in the literature.

The test system of test [2] is T. cruzi intracellular amastigotes. Put plainly: T. cruzi intracellular amastigote image-based assay. Type of test: cell-based, Trypanosoma cruzi. As to conditions: for IC50: Trypanosoma cruzi, intracellular amastigotes, n = 2, top 18.3 µM, read-out: IC50 (mean ± SD), T. cruzi. On the procedure: as §2
(§3) The efficacy of compounds against T. cruzi was undertaken using a phenotypic, high-throughput image-based assay as previously described.

Test [3] deals with 3T3 host cells. Put plainly: 3T3 host cell cytotoxicity (selectivity). To be noted: relative to T. cruzi. It counts as cell-based, mouse. On the procedure:
as §1, §3

For the next test, the system named is P. falciparum (Dd2). As to conditions: cited from earlier work.
Test [4] deals with T. cruzi. On the set-up: method as in PMID 25033456. To be noted: cited from earlier work.
Test [5] concerns L. donovani DD8 promastigotes. Briefly: L. donovani DD8 promastigote viability assay (resazurin). Type of test: cell-based, Leishmania donovani. To be noted: Leishmania donovani. On the procedure:
as §2
This assay was established to assess the activity of the compound library on the extracellular form of the parasites. An initial cell density of 1 × 10^5 parasites/mL was inoculated into a 75 cm^2 flask (in a total of 30 mL of M199 medium + 10% (v/v) HIFBS) and incubated at 27 °C. After 96 h the parasites reached the mid-log phase and were seeded in black, clear bottom 384-well plates (Greiner-bio-one®, Monroe, UT, USA) at a concentration of 5 × 10^5 parasites/mL in a volume of 55 µL using a Bravo automated liquid handling platform (Agilent, Santa Clara, CA, USA). Compound stocks were diluted 1:25 in M199 media without HIFBS using a dilution plate (Greiner-bio-one®, Monroe, UT, USA). The compounds were dispensed in 5 µL using a Bravo and parasites incubated for an additional 68 h at 27 °C. Resazurin (Cayman Chemicals®, Ann Arbor, MI, USA) at 0.142 mM final assay concentration was then dispensed into plates at a volume of 10 µL/well using a Multidrop™ 384 Reagent Dispenser (Thermo Scientific®, Newington, NH, USA) and incubated at 27 °C. The plates were read after 4 h on an EnVision™ Multilabel plate reader (PerkinElmer, Waltham, MA, USA) using fluorometry with an excitation of 530 nm and emission 590 nm. For the L. donovani DD8 promastigote viability assay, 1 µM of amphotericin B was used as positive control and 0.4% DMSO as negative control.

Test [6] has as its system 3T3 host cells. On the set-up: method as in PMID 25033456. As to conditions: relative to T. cruzi; cited from earlier work.
Test [7] has as its system T. b. brucei. On the set-up: method as in PMID 20696141. To be noted: cited from earlier work.
Test [8] concerns L. donovani DD8 intracellular amastigotes. Briefly: L. donovani DD8 intracellular amastigote high content imaging assay. It counts as cell-based, Leishmania donovani. To be noted: Leishmania donovani; n = 2; 14 point dose response, top 20 µM; read-out: IC50 (mean ± SD), L. donovani DD8 intracellular amastigotes. On the procedure:
as §2
A high content, high-throughput imaging assay was used to identify compounds active against L. donovani DD8 intracellular amastigotes as described previosuly.

The subject of the next test is THP-1 cells. Put plainly: THP-1 cytotoxicity (selectivity). It counts as cell-based, human. On the procedure: as §2
Another test relates to T. b. brucei variant 221. To be noted: cited from earlier work.
Test [9] concerns L. donovani (MHOM/SD/62/1S-CL2D) axenic amastigotes. Further details: method as in PMID 15679330. To be noted: strain MHOM/SD/62/1S-CL2D; cited from earlier work.
Test [10] has as its system L. mexicana intracellular amastigotes. Further details: method as in PMID 15679330. To be noted: at 41.89 µM; cited from earlier work.
In test [11] the test system is T. b. brucei. On the set-up: method as in PMID 18833031. To be noted: cited from earlier work.
The subject of another test is L. donovani amastigotes. Further details: method as in PMID 22720099. As to conditions: previously reported; read-out: IC50, amastigote assay; cited from earlier work.
In a further test the test system is T. b. rhodesiense. On the set-up: method as in PMID 28498323. To be noted: cited from earlier work.
Test [12] has as its system T. cruzi. Further details: method as in PMID 28498323. As to conditions: cited from earlier work.
Test [13] relates to NF54 strain of Plasmodium falciparum. Further details: method as in PMID 28498323. As to conditions: read-out: IC50, P. falciparum NF54; cited from earlier work.
A further test has as its system L. donovani. On the set-up: method as in PMID 28498323. To be noted: cited from earlier work.
Another test concerns L. donovani DD8. Further details: method as in PMID 7592170. To be noted: compared to other strains; cited from earlier work.
The mark [14] stands for this setting: relative to L. donovani DD8 intracellular amastigotes.
Setting [15] is: relative to L. donovani DD8 promastigotes.

Regarding `NCCc1c[nH]c2c1C(=O)C1=C(NC=CS1(=O)=O)C2=O` [Compound 3, Thiaplakortone A], the IC50 (as a rule, the concentration at which inhibition is half-maximal) was 0.051 µM in the test with P. falciparum (3D7) (read-out: IC50, chloroquine-sensitive (3D7) P. falciparum); 3.94 ± 0.78 µM in test [1]; 4.26 ± 0.65 µM in test [2]; 0.0066 µM in the test with P. falciparum (Dd2) (read-out: IC50, multi-drug resistant (Dd2) P. falciparum). The “Selectivity index (SI) compared to HEK-293 cells” value is reported as 0.70 in the test on HEK-293 cells (relative to T. b. brucei) and 0.53 in the test on HEK-293 cells (relative to T. cruzi). For the same molecule, the suppression of parasitemia entry in the test with malaria infection is listed as “did not suppress parasitemia”. Moreover, in the test on 3T3 host cells [3], the “Selectivity index (SI) compared to 3T3 cells” value is given as 1.06.

Turning to `Cc1ccc(S(=O)(=O)n2ccc3c2C(=O)C2=C(NCCS2(=O)=O)C3=O)cc1` [Compound 7, 6-tosyl-2,3-dihydro-[1, 4]thiazino[3,2-f]indole-5,9(1H,6H)-dione 4,4-dioxide], the IC50 is 0.546 ± 0.119 µM with P. falciparum (3D7) (read-out: IC50, 3D7 strain of P. falciparum); 0.68 ± 0.01 µM in test [1]; 3.55 ± 0.38 µM in test [2]; 0.509 ± 0.0309 µM in the test on P. falciparum (Dd2) (read-out: IC50, Dd2 strain of P. falciparum). Also, the “Selectivity index (SI) compared to HEK-293 cells” value was 4.19 in the test on HEK-293 cells (relative to T. b. brucei) and 1.46 with HEK-293 cells (relative to T. cruzi). For the same molecule, in the test on 3T3 host cells [3], the “Selectivity index (SI) compared to 3T3 cells” value came to 1.33.

As to `OC(c1cc(C(F)(F)F)nc2c(C(F)(F)F)cccc12)C1CCCCN1` (centres unmarked) [Compound 8, Mefloquine HCl, reference compound], the “Selectivity index (SI) compared to HEK-293 cells” value with HEK-293 cells (relative to T. b. brucei) is listed as 7.97; in the test with HEK-293 cells (relative to T. cruzi), over 5.06. Moreover, in the test with T. cruzi [4], the 50% effective concentration (EC50) (as a rule, the concentration giving half of the maximal effect) was 6.1 µM. Besides, the figures for the IC50 in [1] and in test [2] were 0.62 ± 0.06 µM and 3.96 ± 0.58 µM, respectively. At 16.7 µM the inhibition in [5] was 100%. Also, the “Selectivity index (SI) compared to 3T3 cells” value in the test with 3T3 host cells [3] was over 1.70. Further, the “SI to 3T3 host cells” value with 3T3 host cells [6] is recorded as 2.

As to `CC[C@H]1CN2CCc3cc(OC)c(OC)cc3[C@@H]2C[C@@H]1C[C@H]1NCCc2cc(OC)c(OC)cc21` [Compound 10, Emetine dihydrochloride, reference compound], testing at 16.7 µM in test [5] gave an inhibition of 100%. Also, the IC50 in the test with T. b. brucei [7] was 7.9 µM.

For `COc1c(C)c(O)c(C(=O)/C=C/c2ccccc2)c(O)c1C` [Compound 13, (E)-1-(2,6-dihydroxy-4-methoxy-3,5-dimethylphenyl)-3-phenylprop-2-en-1-one], the “Selectivity index (SI) compared to HEK-293 cells” value is given as ~ 12 with HEK-293 cells (setting [14]) and 11.87 with HEK-293 cells (relative to L. donovani DD8 intracellular amastigotes, listed as Chalcone analogue (13)). The IC50 in [8] is 5.65 ± 0.26 µM; in the test on T. b. brucei variant 221, 21.1 ± 3.68 µM; in [9], 16.8 ± 4.35 µM. For the same molecule, the “Selectivity index (SI) compared to THP-1 cells” value in the test with THP-1 cells (setting [14]) is 3.59. For the same molecule, in [1], the “activity against T. b. brucei” value was “no significant activity”. Moreover, the “activity against T. cruzi” value in test [2] is recorded as “no significant activity”. Besides, testing at 16.7 µM in test [5] gave an inhibition of 100%. Also, the “reduction in infection of L. mexicana intracellular amastigotes” value in test [10] is 96 ± 2%.

With `COc1ccc2c(c[n+](C)c3c4cc5c(cc4ccc23)OCO5)c1OC` [Compound 15, Chelerythrine chloride, reference compound], the “Selectivity index (SI) compared to HEK-293 cells” value in the test with HEK-293 cells (relative to T. b. brucei, listed as Chelerythrine chloride (15)) was over 18.71. Besides, the 50% inhibitory concentration (IC50) in test [1] is 0.23 ± 0.04 µM; in the test with T. b. brucei [11] it was 1.3 µM.

With `CCCCCCCCCCCCCCCCOP(=O)([O-])OCC[N+](C)(C)C` [Miltefosine, reference compound], the 50% inhibitory concentration (IC50) in the test with L. donovani amastigotes is 3.1 ± 2.3 µM; in test [8], 2.54 ± 0.57 µM; in test [5] (n = 2, 14 point dose response, top 16.7 µM, read-out: IC50 (mean ± SD), L. donovani DD8 promastigotes), 3.48 ± 0.26 µM. Moreover, the “Selectivity index (SI) compared to HEK-293 cells” value is on record as over 13.12 with HEK-293 cells (setting [14]) and over 9.57 in the test with HEK-293 cells (setting [15]). The “Selectivity index (SI) compared to THP-1 cells” value is over 7.27 in the test with THP-1 cells (setting [14]) and over 5.74 in the test with THP-1 cells (setting [15]).

With `CCCCCCC/C=C/C=C/C(=O)NCCc1ccc(O)cc1` [dodeca-2E,4E-dienoic acid 4-hydroxy-2-phenyl-ethylamide], the IC50 with T. b. rhodesiense is 2.26 ± 0.18 µM; in the test with T. cruzi [12] it was 1.88 µM; in test [13] it was 3.18 ± 0.2 µM; in the test with L. donovani, 4.19 ± 1.64 µM.

For the molecule parmomycin, the “activity against L. donovani DD8” value in the test on L. donovani DD8 is “negligible activity”.
